Several values for one entry are separate records, joined by “and”; a condition that tells them apart may be missing. Equal entries are not always repeated.
Test system: ANGIOTENSIN II (AII) VASOPRESSOR RESPONSE
Assay: AII Challenge: blockade of the angiotensin II vasopressor response in conscious spontaneously hypertensive rats
Type: in vivo, rat (Male Okamoto-Aoki SHR)
Excerpt: By administering a compound of this invention to a rat, and then challenging with angiotensin II, a blockage of the vasopressor response is realized.
Conscious Male Okamoto-Aoki SHR, 16-20 weeks old, weighing approximately 330 g are purchased from Charles River Labs (Wilmington, Mass.). Conscious rats are restrained in a supine position with elastic tape. The area at the base of the tail is locally anesthetized by subcutaneous infiltration with 2% procaine. The ventral caudal artery and vein are isolated, and a cannula made of polyethylene (PE) 10-20 tubing (fused together by heat) is passed into the lower abdominal aorta and vena cava, respectively. The cannula is secured, heparinized (1,000 I.U./ml), sealed and the wound is closed. The animals are placed in plastic restraining cages in an upright position. The cannula is attached to a Statham P23Db pressure transducer, and pulsatile blood pressure is recorded to 10-15 minutes with a Gould Brush recorder. (Chan et al., (Drug Development Res., 18:75-94, 1989).
Angiotensin II (human sequence, Sigma Chem. Co., St. Louis, Mo.) of 0.05 and 0.1 ug/kg i.v. is injected into all rats (predosing response). Then a test compound, vehicle or a known angiotensin II antagonist is administered i.v., i.p. or orally to each set of rats. The two doses of angiotensin II are given to each rat again at 30, 60, 90, 120, 180, 240 and 300 minutes post dosing the compound or vehicle. The vasopressor response of angiotensin II is measured for the increase in systolic blood pressure in mmHg. The percentage of antagonism or blockade of the vasopressor response of angiotensin II by a compound is calculated using the vasopressor response (increase in systolic blood pressure) of angiotensin II of each rat predosing the compound as 100%. A compound is considered active if at 30 mg/kg i.v. it antagonized at least 50% of the response.

[1] = 3 mg/kg i.v., AII 0.05 mcg/kg IV, 30 min post dose
[2] = 3 mg/kg i.v., AII 0.05 mcg/kg IV, 60 min post dose
[3] = 3 mg/kg i.v., AII 0.05 mcg/kg IV, 90 min post dose
[4] = 3 mg/kg i.v., AII 0.05 mcg/kg IV, 120 min post dose
[5] = 3 mg/kg i.v., AII 0.05 mcg/kg IV, 180 min post dose
[6] = 3 mg/kg i.v., AII 0.05 mcg/kg IV, 240 min post dose
[7] = 3 mg/kg i.v., AII 0.05 mcg/kg IV, 300 min post dose
[8] = 3 mg/kg i.v., AII 0.1 mcg/kg IV, 30 min post dose
[9] = 3 mg/kg i.v., AII 0.1 mcg/kg IV, 60 min post dose
[10] = 3 mg/kg i.v., AII 0.1 mcg/kg IV, 90 min post dose
[11] = 3 mg/kg i.v., AII 0.1 mcg/kg IV, 120 min post dose
[12] = 3 mg/kg i.v., AII 0.1 mcg/kg IV, 180 min post dose
[13] = 3 mg/kg i.v., AII 0.1 mcg/kg IV, 240 min post dose
[14] = 3 mg/kg i.v., AII 0.1 mcg/kg IV, 300 min post dose
[15] = 3 mg/kg p.o., AII 0.05 mcg/kg IV, 30 min post dose
[16] = 3 mg/kg p.o., AII 0.05 mcg/kg IV, 60 min post dose
[17] = 3 mg/kg p.o., AII 0.05 mcg/kg IV, 90 min post dose
[18] = 3 mg/kg p.o., AII 0.05 mcg/kg IV, 120 min post dose
[19] = 3 mg/kg p.o., AII 0.05 mcg/kg IV, 180 min post dose
[20] = 3 mg/kg p.o., AII 0.05 mcg/kg IV, 240 min post dose
[21] = 3 mg/kg p.o., AII 0.1 mcg/kg IV, 30 min post dose
[22] = 3 mg/kg p.o., AII 0.1 mcg/kg IV, 60 min post dose
[23] = 3 mg/kg p.o., AII 0.1 mcg/kg IV, 90 min post dose
[24] = 3 mg/kg p.o., AII 0.1 mcg/kg IV, 120 min post dose
[25] = 3 mg/kg p.o., AII 0.1 mcg/kg IV, 180 min post dose
[26] = 3 mg/kg p.o., AII 0.1 mcg/kg IV, 240 min post dose

In the case of `CCCCc1nc2ccc([C@H]3OC[C@H]4[C@@H]3ON3[C@@H]4CCC3(C)C)cc2c(=O)n1Cc1ccc(-c2ccccc2-c2nnn[nH]2)cc1` (relative stereo) [Example 7, (1α, 3aα, 8aβ, 8bα)-2-Butyl-6-(octahydro-6,6-dimethylfuro[3,4-d]pyrrolo[1,2-b]isoxazol-1-yl)-3-[[2'-(1H-tetrazol-5-yl)[1,1'-biphenyl]-4-yl]methyl]-4 (3H)-quinazolinone], the “% Inhibition” value [1] is reported as 91%, the “Average Change” value [1] is reported as 4.5 mmHg and the “Control Before AII (single rat)” value [1] is reported as 245 mmHg and 214 mmHg. The “Response After AII (single rat)” value [1] was 245 mmHg and 223 mmHg, the “Response Change (single rat)” value [1] was 0 mmHg and 9 mmHg and the “% Inhibition” value [2] was 84%. For the same compound, the “Average Change” value [2] was 7.5 mmHg, the “Control Before AII (single rat)” value [2] was 240 mmHg and 225 mmHg and the “Response After AII (single rat)” value [2] was 255 mmHg and 225 mmHg. The “Response Change (single rat)” value [2] was 15 mmHg and 0 mmHg, the “% Inhibition” value [3] was 89% and the “Average Change” value [3] was 5 mmHg. The “Control Before AII (single rat)” value [3] was 235 mmHg, the “Response After AII (single rat)” value [3] was 240 mmHg and the “Response Change (single rat)” value [3] was 5 mmHg. The “% Inhibition” value [4] was 84%, the “Average Change” value [4] was 7.5 mmHg and the “Control Before AII (single rat)” value [4] was 225 mmHg and 220 mmHg. For the same compound, the “Response After AII (single rat)” value [4] was 235 mmHg and 225 mmHg, the “Response Change (single rat)” value [4] was 10 mmHg and 5 mmHg and the “% Inhibition” value [5] was 79%. The “Average Change” value [5] was 10 mmHg, the “Control Before AII (single rat)” value [5] was 225 mmHg and 215 mmHg and the “Response After AII (single rat)” value [5] was 235 mmHg and 225 mmHg. For the same compound, the “Response Change (single rat)” value [5] was 10 mmHg, the “% Inhibition” value [6] was 63% and the “Average Change” value [6] was 17.5 mmHg. For the same compound, the “Control Before AII (single rat)” value [6] was 225 mmHg and 215 mmHg, the “Response After AII (single rat)” value [6] was 235 mmHg and 240 mmHg and the “Response Change (single rat)” value [6] was 10 mmHg and 25 mmHg. The “% Inhibition” value [7] was 74%, the “Average Change” value [7] was 12.5 mmHg and the “Control Before AII (single rat)” value [7] was 235 mmHg and 210 mmHg. For the same compound, the “Response After AII (single rat)” value [7] was 242 mmHg and 228 mmHg, the “Response Change (single rat)” value [7] was 7 mmHg and 18 mmHg and the “% Inhibition” value [8] was 90%. The “Average Change” value [8] was 5 mmHg, the “Control Before AII (single rat)” value [8] was 255 mmHg and 220 mmHg and the “Response After AII (single rat)” value [8] was 260 mmHg and 225 mmHg. For the same compound, the “Response Change (single rat)” value [8] was 5 mmHg, the “% Inhibition” value [9] was 86% and the “Average Change” value [9] was 7.5 mmHg. The “Control Before AII (single rat)” value [9] was 250 mmHg and 215 mmHg, the “Response After AII (single rat)” value [9] was 255 mmHg and 225 mmHg and the “Response Change (single rat)” value [9] was 5 mmHg and 10 mmHg. For the same compound, the “% Inhibition” value [10] was 83%, the “Average Change” value [10] was 9 mmHg and the “Control Before AII (single rat)” value [10] was 235 mmHg and 225 mmHg. For the same compound, the “Response After AII (single rat)” value [10] was 238 mmHg and 240 mmHg, the “Response Change (single rat)” value [10] was 3 mmHg and 15 mmHg and the “% Inhibition” value [11] was 86%. The “Average Change” value [11] was 7.5 mmHg, the “Control Before AII (single rat)” value [11] was 235 mmHg and 215 mmHg and the “Response After AII (single rat)” value [11] was 240 mmHg and 225 mmHg. The “Response Change (single rat)” value [11] was 5 mmHg and 10 mmHg, the “% Inhibition” value [12] was 72% and the “Average Change” value [12] was 14.5 mmHg. The “Control Before AII (single rat)” value [12] was 235 mmHg and 205 mmHg, the “Response After AII (single rat)” value [12] was 245 mmHg and 224 mmHg and the “Response Change (single rat)” value [12] was 10 mmHg and 19 mmHg. The “% Inhibition” value [13] was 81%, the “Average Change” value [13] was 10 mmHg and the “Control Before AII (single rat)” value [13] was 235 mmHg and 225 mmHg. The “Response After AII (single rat)” value [13] was 245 mmHg and 235 mmHg, the “Response Change (single rat)” value [13] was 10 mmHg and the “% Inhibition” value [14] was 57%. For the same compound, the “Average Change” value [14] was 22.5 mmHg, the “Control Before AII (single rat)” value [14] was 230 mmHg and 215 mmHg and the “Response After AII (single rat)” value [14] was 250 mmHg and 240 mmHg. For the same compound, the “Response Change (single rat)” value [14] was 20 mmHg and 25 mmHg, the “% Inhibition” value [15] was 23% and the “Average Change” value [15] was 29 mmHg. For the same compound, the “Control Before AII (single rat)” value [15] was 215 mmHg and 205 mmHg, the “Response After AII (single rat)” value [15] was 248 mmHg and 230 mmHg and the “Response Change (single rat)” value [15] was 33 mmHg and 25 mmHg. The “% Inhibition” value [16] was 27%, the “Average Change” value [16] was 27.5 mmHg and the “Control Before AII (single rat)” value [16] was 230 mmHg and 195 mmHg. The “Response After AII (single rat)” value [16] was 255 mmHg and 225 mmHg, the “Response Change (single rat)” value [16] was 25 mmHg and 30 mmHg and the “% Inhibition” value [17] was 31%. The “Average Change” value [17] was 26 mmHg, the “Control Before AII (single rat)” value [17] was 210 mmHg and 193 mmHg and the “Response After AII (single rat)” value [17] was 245 mmHg and 210 mmHg. For the same compound, the “Response Change (single rat)” value [17] was 35 mmHg and 17 mmHg, the “% Inhibition” value [18] was 27% and the “Average Change” value [18] was 27.5 mmHg. For the same compound, the “Control Before AII (single rat)” value [18] was 210 mmHg and 195 mmHg, the “Response After AII (single rat)” value [18] was 245 mmHg and 215 mmHg and the “Response Change (single rat)” value [18] was 35 mmHg and 20 mmHg. The “% Inhibition” value [19] was 0%, the “Average Change” value [19] was 37.5 mmHg and the “Control Before AII (single rat)” value [19] was 210 mmHg and 190 mmHg. The “Response After AII (single rat)” value [19] was 255 mmHg and 220 mmHg, the “Response Change (single rat)” value [19] was 45 mmHg and 30 mmHg and the “% Inhibition” value [20] was 0%. For the same compound, the “Average Change” value [20] was 37.5 mmHg, the “Control Before AII (single rat)” value [20] was 210 mmHg and 190 mmHg and the “Response After AII (single rat)” value [20] was 260 mmHg and 215 mmHg. For the same compound, the “Response Change (single rat)” value [20] was 50 mmHg and 25 mmHg, the “% Inhibition” value [21] was 6% and the “Average Change” value [21] was 40 mmHg. For the same compound, the “Control Before AII (single rat)” value [21] was 215 mmHg and 200 mmHg, the “Response After AII (single rat)” value [21] was 260 mmHg and 235 mmHg and the “Response Change (single rat)” value [21] was 45 mmHg and 35 mmHg. For the same compound, the “% Inhibition” value [22] was 6%, the “Average Change” value [22] was 40 mmHg and the “Control Before AII (single rat)” value [22] was 215 mmHg and 195 mmHg. For the same compound, the “Response After AII (single rat)” value [22] was 255 mmHg and 235 mmHg, the “Response Change (single rat)” value [22] was 40 mmHg and the “% Inhibition” value [23] was 18%. For the same compound, the “Average Change” value [23] was 35 mmHg, the “Control Before AII (single rat)” value [23] was 215 mmHg and 195 mmHg and the “Response After AII (single rat)” value [23] was 260 mmHg and 220 mmHg. For the same compound, the “Response Change (single rat)” value [23] was 45 mmHg and 25 mmHg, the “% Inhibition” value [24] was 24% and the “Average Change” value [24] was 32.5 mmHg. The “Control Before AII (single rat)” value [24] was 205 mmHg and 190 mmHg, the “Response After AII (single rat)” value [24] was 240 mmHg and 220 mmHg and the “Response Change (single rat)” value [24] was 35 mmHg and 30 mmHg. For the same compound, the “% Inhibition” value [25] was 12%, the “Average Change” value [25] was 37.5 mmHg and the “Control Before AII (single rat)” value [25] was 215 mmHg and 180 mmHg. For the same compound, the “Response After AII (single rat)” value [25] was 260 mmHg and 210 mmHg, the “Response Change (single rat)” value [25] was 45 mmHg and 30 mmHg and the “% Inhibition” value [26] was 9%. The “Average Change” value [26] was 38.5 mmHg, the “Control Before AII (single rat)” value [26] was 213 mmHg and 185 mmHg and the “Response After AII (single rat)” value [26] was 265 mmHg and 210 mmHg. For the same compound, the “Response Change (single rat)” value [26] was 52 mmHg and 25 mmHg.

— patent US5281604A, “Angiotensin II receptor blocking 2,3,6-substituted quinazolinones” (American Cyanamid Company, priority 1993, dated 1994)
